Among the data in patent US20240158391A1, “DERIVATIVES OF 4-(IMIDAZO[1,2-A]PYRIDIN-3-YL)-N-(PYRIDIN-3-YL) PYRIMIDIN-2- AMINE FOR TREATING PROLIFERATIVE DISEASES AND CONDITIONS” (AUCENTRA THERAPEUTICS PTY LTD, priority 2019, published 2024) are remaining activity, GI50 and Ki values, retold here.

One experiment addresses CDK1/CyclinB (Homo sapiens, UniProt P06493). In words: ADP Glo kinase assay, CDK1/CyclinB. Conditions: compound at 1 μM, read-out: Residual enzymatic activity (%) at 1 μM, CDK1 B. The class given is biochemical. A digest of the protocol:
(§1)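 Dose-response used a threefold serial dilution of ten concentrations, 10-0.0005 μM, carrying 0.5% DMSO. Each room-temperature kinase reaction ran for a time optimised per enzyme and was then halted by adding ADP Glo reagent.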
(In general: In ADP-Glo the light output rises with the ADP produced.)

The target in the next experiment is CDK4/CyclinD1 (Homo sapiens, UniProt P11802). In words: ADP Glo kinase assay, CDK4/CyclinD1. The class given is biochemical. Conditions: compound at 1 μM, read-out: Residual enzymatic activity (%) at 1 μM, CDK4 D1. A digest of the protocol: as §1
The next experiment concerns the target CDK6/CyclinD3 (Homo sapiens, UniProt Q00534). The experiment can be described thus: ADP Glo kinase assay, CDK6/CyclinD3. The format is biochemical. Conditions: compound at 1 μM, read-out: Residual enzymatic activity (%) at 1 μM, CDK6 D3. Summed up: as §1
For another experiment, the target named is CDK7/CyclinH/Mat1 (Homo sapiens, UniProt P50613). In words: ADP Glo kinase assay, CDK7/CyclinH/Mat1. The class given is biochemical. Conditions: for remaining activity at 1 µM: compound at 1 μM, read-out: Residual enzymatic activity (%) at 1 μM, CDK7 H; for Ki: Km ATP, read-out: Enzymatic inhibition, Ki, CDK7 H. A digest of the protocol:
as §1

The test system of another experiment is MV-4-11. The experiment can be described thus: Proliferation assay (resazurin, leukemia cell lines), MV-4-11. The class given is cell-based. Conditions: Homo sapiens, MV4-11, read-out: 72 h Growth inhibition GI50, MV-4-11 cells. An excerpt:
The following compounds were used as comparators.
(In general: Resazurin is reduced to fluorescent resorufin, in cell work by metabolically active cells.)

Another experiment deals with T1, FLT3-ITD (Homo sapiens, UniProt P36888).
T1 sequence (P36888 1-993): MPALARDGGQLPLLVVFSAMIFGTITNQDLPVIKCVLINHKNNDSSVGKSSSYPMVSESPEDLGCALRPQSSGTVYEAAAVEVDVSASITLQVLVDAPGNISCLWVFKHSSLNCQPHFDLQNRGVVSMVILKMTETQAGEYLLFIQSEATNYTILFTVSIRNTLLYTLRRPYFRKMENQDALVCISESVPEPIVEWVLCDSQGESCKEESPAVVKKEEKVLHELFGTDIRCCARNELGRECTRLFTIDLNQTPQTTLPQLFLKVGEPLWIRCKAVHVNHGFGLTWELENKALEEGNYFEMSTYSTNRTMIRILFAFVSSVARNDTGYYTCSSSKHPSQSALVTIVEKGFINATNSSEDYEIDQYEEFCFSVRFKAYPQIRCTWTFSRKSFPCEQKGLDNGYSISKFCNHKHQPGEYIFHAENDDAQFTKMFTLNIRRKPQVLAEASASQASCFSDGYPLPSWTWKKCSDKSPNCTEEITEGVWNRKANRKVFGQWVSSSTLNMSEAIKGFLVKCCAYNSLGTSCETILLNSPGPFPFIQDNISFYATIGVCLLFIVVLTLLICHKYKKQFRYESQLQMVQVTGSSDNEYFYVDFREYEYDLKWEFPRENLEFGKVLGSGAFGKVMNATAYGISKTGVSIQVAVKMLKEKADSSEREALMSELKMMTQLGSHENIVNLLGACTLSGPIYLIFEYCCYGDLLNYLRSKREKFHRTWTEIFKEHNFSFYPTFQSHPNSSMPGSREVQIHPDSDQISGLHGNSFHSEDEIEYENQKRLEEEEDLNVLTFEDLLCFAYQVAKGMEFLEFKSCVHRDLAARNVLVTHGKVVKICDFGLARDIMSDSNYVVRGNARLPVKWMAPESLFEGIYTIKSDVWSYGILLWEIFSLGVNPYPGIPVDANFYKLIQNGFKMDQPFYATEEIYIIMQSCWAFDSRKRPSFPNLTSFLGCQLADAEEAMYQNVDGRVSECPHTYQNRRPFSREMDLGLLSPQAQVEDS
In words: ADP Glo kinase assay, FLT3-ITD. Conditions: Km ATP 100 μM, read-out: Enzymatic inhibition, Ki, FLT3-ITD. The class given is biochemical. A digest of the protocol:
as §1

For a further experiment, the target named is CDK9/CyclinT1 (Homo sapiens, UniProt P50750). In words: ADP Glo kinase assay, CDK9/CyclinT1. The class given is biochemical. As to conditions: CDK9/CyclinT1; Km ATP; read-out: Enzymatic inhibition, Ki, CDK9 T1. A digest of the protocol:
as §1

A further experiment addresses CDK2/CyclinA2 (Homo sapiens, UniProt P24941). The experiment can be described thus: ADP Glo kinase assay, CDK2/CyclinA2. Conditions: for remaining activity at 1 µM: compound at 1 μM, read-out: Residual enzymatic activity (%) at 1 μM, CDK2 A; for Ki: Km ATP, read-out: Enzymatic inhibition, Ki, CDK2 A. The format is biochemical. A digest of the protocol: as §1

CDK4/CyclinD1, sequence (P11802 whole entry, species assumed): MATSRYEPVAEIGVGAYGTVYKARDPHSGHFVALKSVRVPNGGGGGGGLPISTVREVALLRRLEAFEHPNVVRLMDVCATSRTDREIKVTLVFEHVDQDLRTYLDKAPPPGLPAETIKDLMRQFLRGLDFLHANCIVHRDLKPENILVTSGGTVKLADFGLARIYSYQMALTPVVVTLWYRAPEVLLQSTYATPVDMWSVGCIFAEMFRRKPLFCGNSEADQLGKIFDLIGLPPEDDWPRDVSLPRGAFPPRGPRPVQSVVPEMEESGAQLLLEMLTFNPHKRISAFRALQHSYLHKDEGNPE
CDK4/CyclinD1, sequence (P24385 whole entry partner, species assumed): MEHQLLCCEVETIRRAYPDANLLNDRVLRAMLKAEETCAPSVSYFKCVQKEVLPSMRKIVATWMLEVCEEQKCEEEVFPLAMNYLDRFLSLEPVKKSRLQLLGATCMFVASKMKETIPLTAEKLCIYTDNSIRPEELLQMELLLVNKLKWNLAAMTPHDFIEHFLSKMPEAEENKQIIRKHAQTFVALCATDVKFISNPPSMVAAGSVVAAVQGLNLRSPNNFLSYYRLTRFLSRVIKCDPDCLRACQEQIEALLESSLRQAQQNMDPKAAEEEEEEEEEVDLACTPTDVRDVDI
CDK1/CyclinB, sequence (P06493 whole entry, species assumed): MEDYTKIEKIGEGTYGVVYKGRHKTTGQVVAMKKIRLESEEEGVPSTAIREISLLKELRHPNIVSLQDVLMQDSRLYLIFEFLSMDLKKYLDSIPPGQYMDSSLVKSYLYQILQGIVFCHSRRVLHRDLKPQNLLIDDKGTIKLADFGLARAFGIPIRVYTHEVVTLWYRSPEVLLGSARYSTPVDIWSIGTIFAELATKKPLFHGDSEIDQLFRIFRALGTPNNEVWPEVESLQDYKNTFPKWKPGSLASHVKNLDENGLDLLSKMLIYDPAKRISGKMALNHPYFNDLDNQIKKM
CDK1/CyclinB, sequence (P14635 whole entry partner, species assumed): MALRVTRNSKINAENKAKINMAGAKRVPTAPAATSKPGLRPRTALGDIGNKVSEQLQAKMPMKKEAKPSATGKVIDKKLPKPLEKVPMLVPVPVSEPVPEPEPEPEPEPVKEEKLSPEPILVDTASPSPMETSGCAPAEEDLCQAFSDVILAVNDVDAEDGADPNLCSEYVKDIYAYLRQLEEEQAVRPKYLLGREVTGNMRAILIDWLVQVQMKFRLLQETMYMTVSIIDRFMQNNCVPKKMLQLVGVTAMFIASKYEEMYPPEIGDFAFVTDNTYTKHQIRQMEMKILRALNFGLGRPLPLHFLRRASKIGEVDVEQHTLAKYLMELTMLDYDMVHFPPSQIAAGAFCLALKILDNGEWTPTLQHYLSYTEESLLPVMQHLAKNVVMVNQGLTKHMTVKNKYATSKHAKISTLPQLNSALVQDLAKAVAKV
CDK6/CyclinD3, sequence (Q00534 whole entry, species assumed): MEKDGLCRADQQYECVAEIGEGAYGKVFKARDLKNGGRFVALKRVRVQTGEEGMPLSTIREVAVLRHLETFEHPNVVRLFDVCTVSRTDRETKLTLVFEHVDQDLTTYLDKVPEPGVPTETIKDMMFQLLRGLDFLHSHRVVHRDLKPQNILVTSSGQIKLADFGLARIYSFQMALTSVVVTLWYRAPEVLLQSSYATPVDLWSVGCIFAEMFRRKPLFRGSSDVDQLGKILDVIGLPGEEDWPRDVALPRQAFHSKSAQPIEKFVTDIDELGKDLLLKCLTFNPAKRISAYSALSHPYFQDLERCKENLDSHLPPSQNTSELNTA
CDK6/CyclinD3, sequence (P30281 whole entry partner, species assumed): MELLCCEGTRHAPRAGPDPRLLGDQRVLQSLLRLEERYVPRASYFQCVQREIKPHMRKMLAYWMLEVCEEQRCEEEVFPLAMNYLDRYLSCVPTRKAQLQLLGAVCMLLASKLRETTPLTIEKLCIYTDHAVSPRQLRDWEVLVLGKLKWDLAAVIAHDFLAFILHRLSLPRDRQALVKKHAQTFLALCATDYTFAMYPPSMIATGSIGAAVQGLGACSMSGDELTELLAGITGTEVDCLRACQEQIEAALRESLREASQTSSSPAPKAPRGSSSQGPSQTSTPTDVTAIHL
CDK7/CyclinH/Mat1, sequence (P50613 whole entry, species assumed): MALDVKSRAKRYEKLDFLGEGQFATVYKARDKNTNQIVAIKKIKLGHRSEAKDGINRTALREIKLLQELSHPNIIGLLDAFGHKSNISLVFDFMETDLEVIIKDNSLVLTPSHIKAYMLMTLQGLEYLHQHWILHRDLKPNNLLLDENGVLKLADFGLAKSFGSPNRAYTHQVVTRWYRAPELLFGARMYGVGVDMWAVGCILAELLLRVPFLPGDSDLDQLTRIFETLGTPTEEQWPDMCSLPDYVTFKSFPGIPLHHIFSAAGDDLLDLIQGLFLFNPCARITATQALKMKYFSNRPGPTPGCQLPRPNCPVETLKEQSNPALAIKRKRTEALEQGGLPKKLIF
CDK7/CyclinH/Mat1, sequence (P51946 whole entry partner, species assumed): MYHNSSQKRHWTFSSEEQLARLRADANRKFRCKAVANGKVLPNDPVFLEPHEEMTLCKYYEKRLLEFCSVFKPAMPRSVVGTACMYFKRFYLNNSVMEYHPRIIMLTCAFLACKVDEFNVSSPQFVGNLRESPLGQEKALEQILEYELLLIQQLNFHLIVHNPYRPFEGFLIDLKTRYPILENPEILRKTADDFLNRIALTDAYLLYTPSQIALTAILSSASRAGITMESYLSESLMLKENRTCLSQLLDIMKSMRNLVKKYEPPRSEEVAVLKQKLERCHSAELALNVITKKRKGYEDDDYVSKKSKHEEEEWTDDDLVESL
CDK7/CyclinH/Mat1, sequence (P51948 whole entry partner, species assumed): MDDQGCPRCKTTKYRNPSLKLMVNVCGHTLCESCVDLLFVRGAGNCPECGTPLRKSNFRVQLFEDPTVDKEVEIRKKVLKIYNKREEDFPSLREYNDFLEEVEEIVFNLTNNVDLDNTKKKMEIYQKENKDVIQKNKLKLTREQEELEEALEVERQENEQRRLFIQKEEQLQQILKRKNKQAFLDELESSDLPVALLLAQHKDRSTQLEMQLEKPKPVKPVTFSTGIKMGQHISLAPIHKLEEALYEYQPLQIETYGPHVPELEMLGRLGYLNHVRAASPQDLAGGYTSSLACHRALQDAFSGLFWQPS
CDK9/CyclinT1, sequence (P50750 whole entry, species assumed): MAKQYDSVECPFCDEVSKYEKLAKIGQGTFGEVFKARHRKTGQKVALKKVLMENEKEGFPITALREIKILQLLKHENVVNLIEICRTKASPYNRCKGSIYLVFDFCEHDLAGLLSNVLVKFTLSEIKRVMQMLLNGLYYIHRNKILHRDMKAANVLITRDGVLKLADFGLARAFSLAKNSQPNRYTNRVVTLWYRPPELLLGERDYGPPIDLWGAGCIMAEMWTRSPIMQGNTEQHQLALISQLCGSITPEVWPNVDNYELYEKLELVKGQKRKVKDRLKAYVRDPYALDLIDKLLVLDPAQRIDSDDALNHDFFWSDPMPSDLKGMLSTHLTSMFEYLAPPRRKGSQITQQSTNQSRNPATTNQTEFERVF
CDK9/CyclinT1, sequence (O60563 whole entry partner, species assumed): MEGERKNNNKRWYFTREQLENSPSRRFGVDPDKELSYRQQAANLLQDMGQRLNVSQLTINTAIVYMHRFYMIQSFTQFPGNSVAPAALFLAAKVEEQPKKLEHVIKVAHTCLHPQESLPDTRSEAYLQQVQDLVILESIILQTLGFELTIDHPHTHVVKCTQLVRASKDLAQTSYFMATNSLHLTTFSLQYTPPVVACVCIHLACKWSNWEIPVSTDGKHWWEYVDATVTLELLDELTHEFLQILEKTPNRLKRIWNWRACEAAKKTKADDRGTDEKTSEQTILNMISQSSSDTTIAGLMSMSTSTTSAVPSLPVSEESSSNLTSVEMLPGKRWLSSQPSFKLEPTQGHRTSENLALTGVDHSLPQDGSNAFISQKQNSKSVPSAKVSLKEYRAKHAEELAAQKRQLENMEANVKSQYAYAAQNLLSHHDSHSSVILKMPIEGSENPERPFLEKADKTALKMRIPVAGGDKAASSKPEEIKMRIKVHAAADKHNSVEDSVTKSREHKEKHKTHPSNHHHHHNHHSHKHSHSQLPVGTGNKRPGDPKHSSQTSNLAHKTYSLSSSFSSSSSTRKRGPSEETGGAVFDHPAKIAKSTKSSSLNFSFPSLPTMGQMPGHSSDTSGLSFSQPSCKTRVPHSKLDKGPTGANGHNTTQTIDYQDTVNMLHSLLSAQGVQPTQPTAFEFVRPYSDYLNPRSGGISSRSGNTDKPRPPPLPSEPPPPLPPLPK

A word on the GI50: it is the concentration giving 50% growth inhibition. One may read the Ki as the dissociation constant of the complex between target and ligand, obtained from inhibition or displacement. Turning to `CCCNc1ccc(Nc2nccc(-c3cnc4ccc(-c5cnn(C(F)F)c5)cn34)n2)cn1` [Compound 76, N^5-(4-(6-(1-(Difluoromethyl)-1H-pyrazol-4-yl)imidazo[1,2-a]pyridin-3-yl)pyrimidin-2-yl)-N^2-propylpyridine-2,5-diamine], the remaining activity at 1 µM was found to be 96% on CDK1/CyclinB; 97% at CDK4/CyclinD1; 71% at CDK6/CyclinD3; 57% at CDK7/CyclinH/Mat1; 62% on CDK2/CyclinA2. The GI50 in the experiment with MV-4-11 came out at 39 nM. Also, the Ki at FLT3-ITD is 100 nM; on CDK9/CyclinT1, 629 nM.
Regarding `CN1CCN(Cc2ccc(Nc3nccc(-c4cnc5ccc(Br)cn45)n3)cn2)CC1` [Compound 77, 4-(6-Bromoimidazo[1,2-a]pyridin-3-yl)-N-(6-((4-methylpiperazin-1-yl)methyl)pyridin-3-yl)pyrimidin-2-amine], the remaining activity at 1 µM on CDK1/CyclinB is 74%; on CDK4/CyclinD1 it was 52%; on CDK6/CyclinD3 it was 48%; on CDK7/CyclinH/Mat1, 40%. For the same compound, the 50% growth inhibitory concentration (GI50) in the experiment on MV-4-11 was found to be 35 nM. Further, the figures for the Ki on FLT3-ITD, at CDK9/CyclinT1 and on CDK2/CyclinA2 were 70 nM, 51 nM and 40 nM, respectively.
With `CN1CCN(Cc2ccc(Nc3nccc(-c4cnc5ccc(-c6ccccc6)cn45)n3)cn2)CC1` [Compound 78, N-(6-((4-Methylpiperazin-1-yl)methyl)pyridin-3-yl)-4-(6-phenylimidazo[1,2-a]pyridin-3-yl)pyrimidin-2-amine], the remaining activity at 1 µM on CDK1/CyclinB worked out at 99%; at CDK4/CyclinD1, 95%; at CDK6/CyclinD3, 64%; at CDK7/CyclinH/Mat1, 38%; on CDK2/CyclinA2, 46%. Moreover, the concentration for 50% growth inhibition (GI50) in the experiment with MV-4-11 came to 105 nM. For the same compound, the values for the Ki at FLT3-ITD and at CDK9/CyclinT1 were 90 nM and 65 nM, respectively.
Take `CCN1CCN(Cc2ccc(Nc3nccc(-c4cnc5ccc(Br)cn45)n3)cn2)CC1` [Compound 79, 4-(6-Bromoimidazo[1,2-a]pyridin-3-yl)-N-(6-((4-ethylpiperazin-1-yl)methyl)pyridin-3-yl)pyrimidin-2-amine]: the results for the remaining activity at 1 µM on CDK1/CyclinB, at CDK4/CyclinD1 and on CDK6/CyclinD3 were 70%, 48% and 27%, respectively. Moreover, the Ki at CDK7/CyclinH/Mat1 was 168 nM; on FLT3-ITD, 70 nM; on CDK9/CyclinT1, 57 nM; on CDK2/CyclinA2, 42 nM. Moreover, the GI50 in the experiment on MV-4-11 was 38 nM.
Turning to `CCN1CCN(Cc2ccc(Nc3nccc(-c4cnc5ccc(-c6ccccc6)cn45)n3)cn2)CC1` [Compound 80, N-(6-((4-Ethylpiperazin-1-yl)methyl)pyridin-3-yl)-4-(6-phenylimidazo[1,2-a]pyridin-3-yl)pyrimidin-2-amine], the remaining activity at 1 µM came to 92% on CDK1/CyclinB, 81% at CDK4/CyclinD1, 59% at CDK6/CyclinD3 and 37% at CDK2/CyclinA2. Moreover, the Ki was found to be 222 nM at CDK7/CyclinH/Mat1, 60 nM at FLT3-ITD and 60 nM at CDK9/CyclinT1. Also, in the experiment with MV-4-11, the 50% growth inhibitory concentration (GI50) is 102 nM.
On to `CN(C)C1CCN(Cc2ccc(Nc3nccc(-c4cnc5ccc(Br)cn45)n3)cn2)CC1` [Compound 81, 4-(6-Bromoimidazo[1,2-a]pyridin-3-yl)-N-(6-((4-(dimethylamino)piperidin-1-yl)methyl)pyridin-3-yl)pyrimidin-2-amine], for which the remaining activity at 1 µM is 84% on CDK1/CyclinB, 47% on CDK4/CyclinD1 and 22% at CDK6/CyclinD3. Also, the Ki came out at 205 nM on CDK7/CyclinH/Mat1, 70 nM on FLT3-ITD, 143 nM at CDK9/CyclinT1 and 41 nM on CDK2/CyclinA2. Further, in the experiment on MV-4-11, the GI50 was determined as 98 nM.
As for `COC(=O)c1ccc(Nc2nccc(-c3cnc4ccc(Br)cn34)n2)cn1` [Compound 82, Methyl 5-((4-(6-bromoimidazo[1,2-a]pyridin-3-yl)pyrimidin-2-yl)amino)picolinate], the remaining activity at 1 µM at CDK1/CyclinB was 90%; at CDK4/CyclinD1 it was 94%; at CDK6/CyclinD3, 99%; at CDK7/CyclinH/Mat1 it was 93%. The GI50 in the experiment on MV-4-11 came out at 262 nM. Moreover, the results for the Ki at FLT3-ITD, on CDK9/CyclinT1 and on CDK2/CyclinA2 were 180 nM, 163 nM and 52 nM, respectively.
